Where two headings read alike, the source gives them in different places.
Tests used:
[1] = system: Ba/F3-FL-TYK2-P760L cells; experiment: Anti-proliferative assay in engineered Ba/F3 cells (Cell-Titer Glo, 72 h); type: cell-based; settings: concentration that causes 50% growth inhibition, read-out: Baf3-FL-T2P760L
In short: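 Ba/F3 cells carrying Tel-dimerization/JAK kinase fusion, IL-3-independent, in RPMI-1640 + 10% FBS; 9-point 3-fold dilutions from 20 µM (0.1% DMSO) added after 24 h, 72 h at 37 °C. Viability by Cell-Titer Glo ATP luminescence; % inhibition versus DMSO cells, blank-corrected, giving IC50.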

TYK2-JH2 domain = biological target: T1, TYK2-JH2 domain (Homo sapiens, UniProt P29597); experiment: Binding activity test for JH2 domain of TYK2 (Tb-antibody/tracer FRET); settings: for IC50: JH2 domain enzyme, 60 min at 25°C, then 4°C overnight, read-out: TYK2 JH2 Binding IC50; for JAK1/TYK2 selectivity: ratio of JAK1 JH2 to TYK2 JH2 binding IC50
T1 construct: JAK1-JH2 domain or TYK2-JH2 domain enzyme in assay buffer
T1 sequence (P29597 589-875 limits assumed): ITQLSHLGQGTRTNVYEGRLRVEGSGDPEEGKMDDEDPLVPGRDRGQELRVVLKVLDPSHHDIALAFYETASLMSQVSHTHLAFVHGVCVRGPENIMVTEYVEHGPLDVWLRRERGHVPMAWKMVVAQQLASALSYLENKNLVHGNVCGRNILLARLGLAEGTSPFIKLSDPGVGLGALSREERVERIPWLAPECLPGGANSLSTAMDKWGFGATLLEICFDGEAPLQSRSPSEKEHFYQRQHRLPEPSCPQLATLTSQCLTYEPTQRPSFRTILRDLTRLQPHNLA
In short: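 Competitive TR-FRET binding: compounds dispensed as an 11-point 3-fold dilution series, then Tb-labelled antibody and tracer added to the JH2 protein system. Incubated at 25°C, then overnight at 4°C; FRET signal read on Envision and IC50 (nM) derived.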

JAK1-JH2 domain = biological target: T2, JAK1-JH2 domain (Homo sapiens, UniProt P23458); experiment: Binding activity test for JH2 domain of JAK1 (Tb-antibody/tracer FRET); settings: JH2 domain enzyme; 60 min at 25°C, then 4°C overnight; read-out: JAK1 JH2 Binding IC50
T2 construct: JAK1-JH2 domain or TYK2-JH2 domain enzyme in assay buffer
T2 sequence (P23458 583-855 limits assumed): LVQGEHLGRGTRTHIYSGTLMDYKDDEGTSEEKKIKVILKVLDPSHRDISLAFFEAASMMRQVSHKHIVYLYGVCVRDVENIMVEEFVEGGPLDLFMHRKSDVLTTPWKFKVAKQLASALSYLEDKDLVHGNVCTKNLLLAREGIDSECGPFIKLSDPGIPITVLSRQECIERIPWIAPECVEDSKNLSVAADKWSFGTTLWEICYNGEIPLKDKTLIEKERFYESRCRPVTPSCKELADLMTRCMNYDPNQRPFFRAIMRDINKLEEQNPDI
Method: Binding Activity test for JH2 domain of JAK1 and TYK2 […] Add 8μL/well in echo source plate, echo will add 75nL/well with 3-fold serial dilution for 11 points in assay plate. 75nL DMSO for high control and low control. […] For low control, add 5μL/well assay buffer. And then spin down at 1000rpm and centrifuge for 30 seconds. After enzyme system prepared, add 5μL of Tb-antibody solution into each well of assay plate. Spin down at 1000 rpm and centrifuge for 30sec. After Tb-antibody added, also add 5μL of tracer into the assay plate. Spin down at 1000rpm and centrifuge for 30sec. Incubate for […] at 25°C firstly and then continue to incubate the plate at 4°C overnight. Read by envision in FRET mode. The Luminescence value was recorded by a multi-label reader Envision (PerkinElmer). […] Table 2. IC50 on JH2 domain activity (nM)

[2] = Mus musculus, BaF3, 72 h, 72 h compound treatment

`COc1c([C@H](OC)C(F)(F)F)ccn2ncc(Nc3cc(NC(=O)C4CC4)ncc3C(=O)CC#N)c12` [Example 91, (S)-N-(5-(2-cyanoacetyl)-4-((4-methoxy-5-(2,2,2-trifluoro-1-methoxyethyl)pyrazolo[1,5-a]pyridin-3-yl)amino)pyridin-2-yl)cyclopropanecarboxamide] was tested, and the IC50 [1, 2] was 1380 nM, the IC50 (TYK2-JH2 domain) was 5.24 nM and the JAK1/TYK2 selectivity (TYK2-JH2 domain) was >56.93. For the same compound, the IC50 (JAK1-JH2 domain) was > 298 nM.
`COC(=O)c1cnc2cc1Nc1cc(cc(-c3ccn(C)n3)c1OC)CCOCc1cccc(n1)N2` [Example 105, Methyl 10-methoxy-11-(1-methyl-1H-pyrazol-3-yl)-16-oxa-2,4,8,22-tetraazatetracyclo[16.3.1.1^{3,7}.1^{9,13}]tetracosa-1(22),3,5,7(24),9(23),10,12,18,20-nonaene-6-carboxylate] showed an IC50 [1, 2] of 66.8 nM, an IC50 (TYK2-JH2 domain) of 1.21 nM and a JAK1/TYK2 selectivity (TYK2-JH2 domain) of 191.94. It also gave an IC50 (JAK1-JH2 domain) of 232 nM.
In the case of `CNC(=O)c1nnc(NC(=O)C2CC2)cc1Nc1nc2ccccn2n1` [Example 185, 4-([1,2,4]Triazolo[1,5-a]pyridin-2-ylamino)-6-(cyclopropanecarboxamido)-N-methylpyridazine-3-carboxamide], the IC50 [1, 2] is reported as 89.1 nM, the IC50 (TYK2-JH2 domain) is reported as 0.565 nM and the JAK1/TYK2 selectivity (TYK2-JH2 domain) is reported as 16.30. For the same compound, the IC50 (JAK1-JH2 domain) was 9.21 nM.
With `[2H]C([2H])([2H])OC(=O)c1cnc(NC(=O)C2CC2)cc1Nc1ncn2ncc(C(OC)C(F)(F)F)c2c1OC` (stereo not shown) [Example 81, Methyl-d3 6-(cyclopropanecarboxamido)-4-((4-methoxy-3-(2,2,2-trifluoro-1-methoxyethyl)pyrazolo[1,5-c]pyrimidin-5-yl)amino)nicotinate] the IC50 [1, 2] was 306 nM, the IC50 (TYK2-JH2 domain) was 4.02 nM and the JAK1/TYK2 selectivity (TYK2-JH2 domain) was >74.25. The IC50 (JAK1-JH2 domain) was > 298 nM.
With `COCOc1cnc(NC(=O)C2CC2)cc1Nc1cnn2ccc([C@H](OC)C(F)(F)F)c(OC)c12` [Example 94, (S)-N-(4-((4-methoxy-5-(2,2,2-trifluoro-1-methoxyethyl)pyrazolo[1,5-a]pyridin-3-yl)amino)-5-(methoxymethoxy)pyridin-2-yl)cyclopropanecarboxamide] the IC50 ([1]; Mus musculus, BaF3, 72 h compound treatment) was 4630 nM, the IC50 (TYK2-JH2 domain) was 141 nM and the JAK1/TYK2 selectivity (TYK2-JH2 domain) was 1.37. It also gave an IC50 (JAK1-JH2 domain) of 193 nM.
Compound `[2H]C([2H])([2H])NC(=O)c1cnc(NC(=O)C2CC2)cc1Nc1cnn2ccc(C(=O)OC)c(OC)c12` [Example 6, Methyl 3-((2-(cyclopropanecarboxamido)-5-((methyl-d3)carbamoyl)pyridin-4-yl)amino)-4-methoxypyrazolo[1,5-a]pyridine-5-carboxylate] has an IC50 [1, 2] of 146 nM, an IC50 (TYK2-JH2 domain) of 0.482 nM and a JAK1/TYK2 selectivity (TYK2-JH2 domain) of 15.4. The IC50 (JAK1-JH2 domain) was 7.45 nM.
With `COC(=O)c1cnc(NC(=O)C2CC2)cc1Nc1n[nH]c2ccc(C(OC)C(F)(F)F)c(OC)c12` (stereo not shown) [Example 113, Methyl 6-(cyclopropanecarboxamido)-4-((4-methoxy-5-(2,2,2-trifluoro-1-methoxyethyl)-1H-indazol-3-yl)amino)nicotinate] the IC50 [1, 2] was > 1000 nM, the IC50 (TYK2-JH2 domain) was 0.258 nM and the JAK1/TYK2 selectivity (TYK2-JH2 domain) was 288.80. It also gave an IC50 (JAK1-JH2 domain) of 74.5 nM.
In the case of `CNC(=O)c1cnc(NC(=O)C2CC2)cc1Nc1nn(C)c2ccc([C@H](O)C(F)(F)F)c(OC)c12` [Example 189, (S)-6-(Cyclopropanecarboxamido)-4-((4-methoxy-1-methyl-5-(2,2,2-trifluoro-1-hydroxyethyl)-1H-indazol-3-yl)amino)-N-methylnicotinamide], the IC50 [1, 2] is reported as 0.119 nM, the IC50 (TYK2-JH2 domain) is reported as 0.054 nM and the JAK1/TYK2 selectivity (TYK2-JH2 domain) is reported as 64.91. It also gave an IC50 (JAK1-JH2 domain) of 3.5 nM.
With `[2H]C([2H])([2H])CC(=O)c1cnc(NC(=O)C2CC2)cc1Nc1nn(C)c2ccc(C(OC)C(F)(F)F)c(OC)c12` (single isomer, unassigned) [Example 65B, (S*)-N-(4-((4-methoxy-1-methyl-5-(2,2,2-trifluoro-1-methoxyethyl)-1H-indazol-3-yl)amino)-5-(propanoyl-3,3,3-d3)pyridin-2-yl)cyclopropanecarboxamide] the IC50 ([1]; 72 h compound treatment) was 2.1 nM, the IC50 (TYK2-JH2 domain) was 0.09 nM and the JAK1/TYK2 selectivity (TYK2-JH2 domain) was 144.84. For the same compound, the IC50 (JAK1-JH2 domain) was 12.5 nM.
`CCONC(=O)c1cnc(NC(=O)C2CC2)cc1Nc1nn(C)c2ccc(C(OC)C(F)(F)F)c(OC)c12` (stereo not shown) [Example 75, 6-(Cyclopropanecarboxamido)-N-ethoxy-4-((4-methoxy-1-methyl-5-(2,2,2-trifluoro-1-methoxyethyl)-1H-indazol-3-yl)amino)nicotinamide] gave an IC50 (TYK2-JH2 domain) of 0.09 nM, a JAK1/TYK2 selectivity (TYK2-JH2 domain) of 274.63 and an IC50 (JAK1-JH2 domain) of 24.7 nM.
`CCn1nc(Nc2cc(NC(=O)C3CC3)ncc2C(=O)OC)c2c(OC)c(C(O)C(F)(F)F)ccc21` (single isomer, unassigned) [Example 70B, Methyl (R*)-6-(cyclopropanecarboxamido)-4-((1-ethyl-4-methoxy-5-(2,2,2-trifluoro-1-hydroxyethyl)-1H-indazol-3-yl)amino)nicotinate] was tested, and the IC50 (TYK2-JH2 domain) was 2.12 nM, the JAK1/TYK2 selectivity (TYK2-JH2 domain) was 22.26 and the IC50 (JAK1-JH2 domain) was 47.2 nM.
For `[2H]C([2H])([2H])n1nc(Nc2cc(NC(=O)C3CC3)ncc2C(=O)OC)c2c(OC)c(C(OC)C(F)F)ccc21` (stereo not shown) [Example 69, Methyl 6-(cyclopropanecarboxamido)-4-((5-(2,2-difluoro-1-methoxyethyl)-4-methoxy-1-(methyl-d3)-1H-indazol-3-yl)amino)nicotinate], the IC50 (TYK2-JH2 domain) was 0.13 nM, the JAK1/TYK2 selectivity (TYK2-JH2 domain) was 114.31 and the IC50 (JAK1-JH2 domain) was 14.9 nM.
For `CCOC(=O)c1nnc(NC(=O)C2CC2)cc1Nc1cccc(-c2ncn(C)n2)c1OC` [Example 86, Ethyl 6-(cyclopropanecarboxamido)-4-((2-methoxy-3-(1-methyl-1H-1,2,4-triazol-3-yl)phenyl)amino)pyridazine-3-carboxylate], the IC50 (TYK2-JH2 domain) was > 298 nM and the IC50 (JAK1-JH2 domain) was > 298 nM.
In the case of `[2H]C([2H])([2H])OC(=O)c1nnc(NC(=O)C2CC2)cc1Nc1nc2ccc(N3CC(OC)C3)cn2n1` [Example 125, Methyl-d3 6-(cyclopropanecarboxamido)-4-((6-(3-methoxyazetidin-1-yl)-[1,2,4]triazolo[1,5-a]pyridin-2-yl)amino)pyridazine-3-carboxylate], the IC50 (TYK2-JH2 domain) is reported as 52.4 nM, the JAK1/TYK2 selectivity (TYK2-JH2 domain) is reported as >5.70 and the IC50 (JAK1-JH2 domain) is reported as > 298 nM.
With `CCn1nc(Nc2cc(NC(=O)C3CC3)ncc2C(=O)OC)c2c(OC)c(C(OC)C(F)(F)F)ccc21` (single isomer, unassigned) [Example 66A, Methyl (R*)-6-(cyclopropanecarboxamido)-4-((1-ethyl-4-methoxy-5-(2,2,2-trifluoro-1-methoxyethyl)-1H-indazol-3-yl)amino)nicotinate] the IC50 (TYK2-JH2 domain) was 2.81 nM, the JAK1/TYK2 selectivity (TYK2-JH2 domain) was 106.23 and the IC50 (JAK1-JH2 domain) was > 298 nM.
Compound `COC(=O)c1cnc(NC(=O)C2CC2)cc1Nc1nsc2ccc(C(OC)C(F)(F)F)c(OC)c12` (single isomer, unassigned) [Example 67A, Methyl (S*)-6-(cyclopropanecarboxamido)-4-((4-methoxy-5-(2,2,2-trifluoro-1-methoxyethyl)benzo[d]isothiazol-3-yl)amino)nicotinate] has an IC50 (TYK2-JH2 domain) of 0.21 nM, a JAK1/TYK2 selectivity (TYK2-JH2 domain) of 88.72 and an IC50 (JAK1-JH2 domain) of 18.6 nM.
`[2H]C([2H])([2H])CC(=O)c1cnc(NC(=O)C2CC2)cc1Nc1nn(C)c2ccc([C@@H](O)C(F)(F)F)c(OC)c12` [Example 54B, (R)-N-(4-((4-methoxy-1-methyl-5-(2,2,2-trifluoro-1-hydroxyethyl)-1H-indazol-3-yl)amino)-5-(propanoyl-3,3,3-d3)pyridin-2-yl)cyclopropanecarboxamide] gave an IC50 (TYK2-JH2 domain) of 0.433 nM, a JAK1/TYK2 selectivity (TYK2-JH2 domain) of 16.36 and an IC50 (JAK1-JH2 domain) of 7.08 nM.
Work on `CONC(=O)c1cnc(NC(=O)C2CC2)cc1Nc1nn(C)c2ccc(C(OC)C(F)(F)F)c(OC)c12` (stereo not shown) [Example 73, 6-(Cyclopropanecarboxamido)-N-methoxy-4-((4-methoxy-1-methyl-5-(2,2,2-trifluoro-1-methoxyethyl)-1H-indazol-3-yl)amino)nicotinamide] yielded an IC50 [1, 2] of 7.56 nM and an IC50 (TYK2-JH2 domain) of 0.14 nM.
Work on `COC(=O)c1cnc(NC(=O)C2CC2)cc1Nc1nsc2ccc(C(OC)C(F)(F)F)c(OC)c12` (single isomer, unassigned) [Example 67B, Methyl (R*)-6-(cyclopropanecarboxamido)-4-((4-methoxy-5-(2,2,2-trifluoro-1-methoxyethyl)benzo[d]isothiazol-3-yl)amino)nicotinate] yielded an IC50 (TYK2-JH2 domain) of 0.32 nM, a JAK1/TYK2 selectivity (TYK2-JH2 domain) of 372.97 and an IC50 (JAK1-JH2 domain) of 119 nM.
Compound `[2H]C([2H])([2H])NC(=O)c1cnc(NC(=O)C2CC23CC3)cc1Nc1nn(C)c2ccc([C@H](O)C(F)(F)F)c(OC)c12` (stereo partly drawn) [Example 199, 4-((4-Methoxy-1-methyl-5-((S)-2,2,2-trifluoro-1-hydroxyethyl)-1H-indazol-3-yl)amino)-N-(methyl-d3)-6-(spiro[2.2]pentane-1-carboxamido)nicotinamide] has an IC50 (TYK2-JH2 domain) of 0.091 nM, a JAK1/TYK2 selectivity (TYK2-JH2 domain) of 61.34 and an IC50 (JAK1-JH2 domain) of 5.58 nM.

Reference: patent EP4813463A2, “TYK2 INHIBITORS AND COMPOSITIONS AND METHODS THEREOF” (Lynk Pharmaceuticals Co. Ltd., priority 2023, dated 2024)
